Question: With `CS(=O)c1ccc(C2=C(c3cccc(F)c3)C(=O)C(C)(C)O2)cc1` (centres undefined) as the compound, how does the melting point read?
Answer: 143 to 144 °C

Question: With `O=Cc1cnn(-c2c(Cl)cc(C(F)(F)F)cc2Cl)n1` as the compound, how does the melting point read?
Answer: 94 to 95 °C

Question: Which melting point does the source give for `Cc1ccc(-c2cc(C=O)ccn2)cc1` here?
Answer: 66 °C

Question: Which melting point does the source give for `N#C[C@H]1CC(F)(F)CN1C(=O)CNC1(CO)CCC2(CCOCC2)CC1` here?
Answer: 128 °C

Question: With `CN1C(=O)CCC(C)(C)c2cc(N)ccc21` as the compound, how does the melting point read?
Answer: 119 to 122 °C

Question: For `Cc1c(C)c2c(c(C)c1N)[C@H](c1ccc(C(C)C)cc1)[C@H](C)O2` (relative stereo), which melting point is on record?
Answer: 91 to 92 °C

Question: With `CCCNC(=S)NCCC1Cc2ccc(-c3ccc(=O)[nH]n3)cc2C1` (centres undefined) as the compound, how does the melting point read?
Answer: 155 to 157 °C

Question: For `CC(C)(C)OC(=O)N1CCn2c(c(C(N)=O)c(Cl)c2C2CC2)C1`, which melting point is on record?
Answer: 102 to 104 °C

Question: Which melting point does the source give for `O=C1c2ccccc2C(=O)N1CC(O)COc1cccc2ccccc12` (centres undefined) here?
Answer: 152 to 154 °C

Question: With `Oc1ccc2ccc(Oc3c(Cl)cc(C(F)(F)F)cc3Cl)cc2c1` as the compound, how does the melting point read?
Answer: 98 °C

Question: For `CCC1(CC)C(=O)N(C(C)(C)C)CC(C)(C)N1C(C)c1ccc(OC(C)=O)cc1` (centres undefined), which melting point is on record?
Answer: 92 to 96 °C

Question: With `C#CCN(C)C(=O)NC` as the compound, how does the melting point read?
Answer: 68 to 69 °C

Question: For `CNC(=O)N1N=C(c2ccc([N+](=O)[O-])cc2)c2cc(Cl)c(Cl)cc2CC1C` (centres undefined), which melting point is on record?
Answer: 221 to 223 °C

Question: Which melting point does the source give for `Cc1nc(-c2ccccn2)n2cn[nH]c(=O)c12` here?
Answer: 295 to 297 °C

Question: With `C=Cc1ccc2c(c1)CC(CNC(=O)OC(C)(C)C)CC2` (centres undefined) as the compound, how does the melting point read?
Answer: 98 to 100 °C

Question: With `Cc1ccc(Oc2ccc(-n3cnnn3)cc2)c(O)c1` as the compound, how does the melting point read?
Answer: 129 to 132 °C

Question: Which melting point does the source give for `FC(F)(F)Oc1ccc(-n2cnc(-c3ccc(/C=N/NC(=S)Nc4ccccc4C4CCCC4)cc3)n2)cc1` here?
Answer: 213 to 216 °C

Question: Which melting point does the source give for `COc1cc(C(=O)NC(C)(C)C)ccc1S(=O)(=O)Cl` here?
Answer: 145 to 149 °C

Question: For `CCOC(=O)C1=CC2=C(C)C(C)(OC)C=C(C)C2=N1` (centres undefined), which melting point is on record?
Answer: 182 to 183 °C

Question: For `O=[N+]([O-])/C=C/c1c2n(c3ccccc13)CCNCC2`, which melting point is on record?
Answer: 225 to 226 °C

Question: Which melting point does the source give for `CC(C)(CCN1CCc2ccc(S(=O)(=O)Nc3cccc(Cl)c3)cc2C1)C(=O)O` here?
Answer: 120 °C

Question: For `O=Cc1c[nH]c2ccc(C(F)(F)F)cc12`, which melting point is on record?
Answer: 242 to 243 °C

Question: For `O=C1OC(=O)c2c(Cl)cc(Cl)cc21`, which melting point is on record?
Answer: 90 to 94 °C

Question: With `CCOC(=O)c1cc(O)n(-c2ccccc2)n1` as the compound, how does the melting point read?
Answer: 183 to 184 °C

Question: Which melting point does the source give for `N=C(Nc1ccccc1)Nc1nc(-c2ccccc2)cs1` here?
Answer: 179 to 180 °C

Question: For `NC(=O)c1c(Br)cc(Br)c(CC(=O)O)c1Br`, which melting point is on record?
Answer: 245 °C

Question: Which melting point does the source give for `O=C1OC(=O)c2cc3cc(Cl)ccc3cc21` here?
Answer: 220 °C

Question: Which melting point does the source give for `COc1ccc(CCc2nc(Br)c(C(F)(F)F)[nH]2)cc1` here?
Answer: 104 to 106 °C

Question: With `O=C1c2c([N+](=O)[O-])cccc2S(=O)(=O)N1CCO` as the compound, how does the melting point read?
Answer: 140 to 141 °C

Question: Which melting point does the source give for `Cn1ncc(CO)c1-c1ccc(Cl)cc1C(O)c1ccccc1F` (centres undefined) here?
Answer: 152 to 155 °C

Question: Which melting point does the source give for `NC(=O)/C=C/c1ccc(F)cc1` here?
Answer: 130 °C

Question: For `C=CCNc1cc(F)ccc1C(=O)O`, which melting point is on record?
Answer: 136 to 139 °C

Question: With `O=C(Cc1ccncc1)NC(Cc1csc2ccccc12)C(=O)CCc1cc(C(F)(F)F)cc(C(F)(F)F)c1` (centres undefined) as the compound, how does the melting point read?
Answer: 184 to 187 °C

Question: For `CSC(SC)=C(C(=O)C(C)(C)C)n1cncn1`, which melting point is on record?
Answer: 60 °C

Question: Which melting point does the source give for `CCOC(=O)c1c(C)[nH]c2ccc(OCC3CO3)cc12` (centres undefined) here?
Answer: 93 to 94 °C

Question: With `O=c1c2c(Cl)cc(Cl)cc2n(Cc2ccccc2)c(=O)n1Cc1cccc2ccccc12` as the compound, how does the melting point read?
Answer: 220 to 226 °C

Question: With `CCc1ccc2nc(C)[nH]c2c1N1CC(CNC(C)=O)OC1=O` (centres undefined) as the compound, how does the melting point read?
Answer: 217 to 218 °C

Question: Which melting point does the source give for `Cc1ccc(S(=O)(=O)N2C[C@@H]3C[C@H]2CN3C)cc1` here?
Answer: 87 to 88 °C

Question: For `CCOC(=O)N1CCC(=C2c3ccccc3C=Cc3ccccc32)CC1`, which melting point is on record?
Answer: 123 to 124 °C

Question: For `CNC(=O)CCC(O)c1ccccc1` (centres undefined), which melting point is on record?
Answer: 67 to 69 °C

Question: Which melting point does the source give for `OCC=Cc1ccc(Br)cc1F` here?
Answer: 38 to 40 °C

Question: With `Cc1ccc2c(c1)S/C(=C(/N)c1ccccc1)C2=O` as the compound, how does the melting point read?
Answer: 166 to 167 °C

Question: Which melting point does the source give for `CC(C)(C)OC(=O)Cn1c(C(=O)O)cc2cc(NC(=O)OC(C)(C)C)ccc21` here?
Answer: > 300 °C

Question: With `COc1ccc(CSc2cccc(N)c2)cc1` as the compound, how does the melting point read?
Answer: 85 to 86 °C

From a melting point compilation (Tetko et al.; mined from patent text by program, amines drawn as free bases though some values may be those of a salt)
